Experimental findings from ChEMBL document CHEMBL3137667, “[Drug-induced liver injury; fourteenth updated edition of the bibliographic database of liver injuries and related drugs]” (Gastroenterol Clin Biol, 2004) are described below.

For data set [1] the following is noted: human.
The nature of data set [2]: Highest frequency of moderate liver toxicity observed during clinical trials, expressed as a percentage. [column '% BIOL' in source]. Particulars: human.
The conditions of data set [3]: human. The source holds these as a separate data set.
For data set [4] the following is noted: human. The source holds these as a separate data set.
The conditions of data set [5]: human. This is another data set of the same source.
The conditions of data set [6]: human. This is another data set of the same source.
The nature of data set [7]: Times to onset, minimal and maximal, observed in the indexed observations. [column 'DELAI' in source]. The note with it: human.
The conditions of data set [8]: human. This is another data set of the same source.
For data set [9] the following is noted: human, serum, 4383 h.
For data set [10] the following is noted: human. This is another data set of the same source.
The conditions of data set [11]: human. The source holds these as a separate data set.
A short description of data set [12]: Presence of at least one case with successful reintroduction. [column 'REINT' in source]. The note with it: human.
The conditions of data set [13]: human, serum.
Data set [14] can be described thus: Highest frequency of acute liver toxicity observed during clinical trials, expressed as a percentage. [column '% AIGUE' in source]. The note with it: human.
For data set [15] the following is noted: human, serum. This is another data set of the same source.
Data set [16] can be described thus: Comments (NB not yet translated). [column 'COMMENTAIRES' in source]. Particulars: human.
The conditions of data set [17]: human. This is another data set of the same source.
The nature of data set [18]: Proposed mechanism(s) of liver damage. [column 'MEC' in source]. Particulars: human.
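For Hepatotoxicity (association with vascular disease) in this document: count of indexed literature references reporting vascular liver injury in humans, e.g. peliosis hepatitis, hepatic veno-occlusive disease or Budd-Chiari syndrome.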
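For Hepatotoxicity (benign tumour) in this document: value is a count of indexed literature references citing a benign tumour confirmed by histopathology.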
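For Hepatotoxicity (choleostasis) in this document: human cholestatic liver injury, shown by histopathology or by peak ALT or AST elevation over alkaline phosphatase ratio below 2, value counts indexed literature reports.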
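For Hepatotoxicity (chronic liver disease) in this document: chronic liver injury confirmed by histopathology or persistently raised serum aminotransferase activity beyond 6 months, value given as the count of indexed literature references.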
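For Hepatotoxicity (cirrhosis) in this document: value is a count of indexed literature references reporting cirrhosis confirmed by histopathology.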
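For Hepatotoxicity (cytolytic) in this document: human cytolytic liver injury, shown by histopathology or by a ratio above 5 of peak ALT or AST elevation to alkaline phosphatase elevation, value counts indexed references.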
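For Hepatotoxicity (granulomatous hepatitis) in this document: value is a count of indexed literature references reporting granulomatous liver disease confirmed by histopathology.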
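For Hepatotoxicity (malignant tumour) in this document: malignant tumour confirmed by histopathology, value gives the count of indexed literature references reporting it.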
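For Hepatotoxicity (severe hepatitis) in this document: human clinical data: severe hepatitis, meaning potentially life-threatening liver failure or clinically observed cases, the value counts how many indexed literature references report it.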
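For Hepatotoxicity (steatosis) in this document: steatosis confirmed by histopathology, value is the count of indexed references.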

With ALTEPLASE, in data set [1], the “Hepatotoxicity (cytolytic)” value is 1. Moreover, the “Hepatotoxicity (moderate)” value in [2] worked out at 21.2%; in data set [13], 4. Moreover, in [3], the “Hepatotoxicity (granulomatous hepatitis)” value was 0. The “Hepatotoxicity (steatosis)” value in data set [4] worked out at 0. In addition, the “Hepatotoxicity (benign tumour)” value in data set [5] is 0. For the same compound, the “Hepatotoxicity (choleostasis)” value in data set [6] worked out at 0. The “Hepatotoxicity (time to onset)” value in [7] is listed as 3 days - 4 days. In data set [8], the “Hepatotoxicity (malignant tumour)” value was found to be 0. Also, the “Hepatotoxicity (chronic liver disease)” value in data set [9] turned out to be 0. Further, the “Hepatotoxicity (severe hepatitis)” value in [10] is on record as 0. In [11], the “Hepatotoxicity (cirrhosis)” value was 0. The “Hepatotoxicity (successful reintroduction)” value in data set [12] is on record as “yes”. Also, the “Hepatotoxicity (acute)” value in data set [14] came to 0%; in [15] it was 1. Also, the “Hepatotoxicity (comment)” value in data set [16] is reported as “AGGRAVATION_MVO”. In addition, in [17], the “Hepatotoxicity (association with vascular disease)” value is reported as 0.

As for `CC(C)(C)NC(=O)[C@@H]1CN(Cc2cccnc2)CCN1C[C@@H](O)C[C@@H](Cc1ccccc1)C(=O)N[C@H]1c2ccccc2C[C@H]1O.O`, in data set [1], the “Hepatotoxicity (cytolytic)” value was found to be 8. The “Hepatotoxicity (moderate)” value was determined as 8% in data set [2] (Liver) and 5 in data set [13]. In addition, the “Hepatotoxicity (granulomatous hepatitis)” value in data set [3] was found to be 0. For the same compound, the “Hepatotoxicity (steatosis)” value in data set [4] stood at 3. For the same compound, the “Hepatotoxicity (benign tumour)” value in data set [5] worked out at 0. Further, in data set [6], the “Hepatotoxicity (choleostasis)” value came to 0. Also, the “Hepatotoxicity (time to onset)” value in data set [7] is 5 hours - 19 months. Besides, the “Hepatotoxicity (malignant tumour)” value in data set [8] was determined as 0. For the same compound, in data set [9], the “Hepatotoxicity (chronic liver disease)” value turned out to be 0. In data set [10] (Liver), the “Hepatotoxicity (severe hepatitis)” value turned out to be 4. Besides, the “Hepatotoxicity (cirrhosis)” value in [11] came to 0. In addition, the “Hepatotoxicity (successful reintroduction)” value in data set [12] is “yes”. Also, the “Hepatotoxicity (acute)” value in [14] (Liver) was found to be 9.1%; in data set [15], 12. Also, in [16], the “Hepatotoxicity (comment)” value is “REACTIVATION_HVB/HVC LITHIASE”. In addition, the “Hepatotoxicity (association with vascular disease)” value in [17] came out at 0.

Consider `NC(N)=Nc1nc(CSCCC(N)=NS(N)(=O)=O)cs1` [FAMOTIDINE], for which, in [1] (Liver), the “Hepatotoxicity (cytolytic)” value is 4. In addition, the “Hepatotoxicity (moderate)” value amounted to 2.8% in data set [2] (Liver) and 12 in data set [13]. Moreover, the “Hepatotoxicity (granulomatous hepatitis)” value in data set [3] (Liver) amounted to 0. Also, the “Hepatotoxicity (steatosis)” value in [4] was 0. Further, in data set [5], the “Hepatotoxicity (benign tumour)” value worked out at 0. The “Hepatotoxicity (choleostasis)” value in data set [6] (Liver) was determined as 0. Besides, the “Hepatotoxicity (time to onset)” value in data set [7] was determined as 3 days - 3 weeks. Further, in data set [8], the “Hepatotoxicity (malignant tumour)” value amounted to 0. Further, the “Hepatotoxicity (chronic liver disease)” value in [9] came out at 0. For the same compound, in data set [10] (Liver), the “Hepatotoxicity (severe hepatitis)” value came to 0. Moreover, in [11], the “Hepatotoxicity (cirrhosis)” value worked out at 0. Further, the “Hepatotoxicity (successful reintroduction)” value in data set [12] is listed as “yes”. Also, the “Hepatotoxicity (acute)” value in data set [14] (Liver) is listed as 0%; in [15], 5. Also, the “Hepatotoxicity (comment)” value in data set [16] is given as “RC/CIMETIDINE”. The “Hepatotoxicity (association with vascular disease)” value in data set [17] is given as 0.

As to `CC1(C)S[C@@H]2[C@H](NC(=O)[C@H](C(=O)O)c3ccsc3)C(=O)N2[C@H]1C(=O)O` [TICARCILLIN], the “Hepatotoxicity (cytolytic)” value in [1] is on record as 0. In addition, the “Hepatotoxicity (moderate)” value in data set [2] amounted to 5%; in [13], 7. For the same compound, in data set [3], the “Hepatotoxicity (granulomatous hepatitis)” value is 0. The “Hepatotoxicity (steatosis)” value in data set [4] was determined as 0. Besides, the “Hepatotoxicity (benign tumour)” value in [5] is reported as 0. Also, the “Hepatotoxicity (choleostasis)” value in data set [6] is recorded as 0. In addition, in data set [7], the “Hepatotoxicity (time to onset)” value is 2 days - 1 week. For the same compound, the “Hepatotoxicity (malignant tumour)” value in [8] is recorded as 0. Also, the “Hepatotoxicity (chronic liver disease)” value in [9] is reported as 0. The “Hepatotoxicity (severe hepatitis)” value in data set [10] was 0. Besides, the “Hepatotoxicity (cirrhosis)” value in data set [11] is on record as 0. Further, in data set [12], the “Hepatotoxicity (successful reintroduction)” value is on record as “yes”. The “Hepatotoxicity (acute)” value in data set [14] stood at 0%; in data set [15], 0. Further, the “Hepatotoxicity (comment)” value in data set [16] was “RC/CARBENICILLINE”. Moreover, in data set [17], the “Hepatotoxicity (association with vascular disease)” value turned out to be 0.

With `Cc1cn([C@H]2C[C@H](N=[N+]=[N-])[C@@H](CO)O2)c(=O)[nH]c1=O` [ZIDOVUDINE], the “Hepatotoxicity (cytolytic)” value in data set [1] is 22. Moreover, the “Hepatotoxicity (moderate)” value in data set [2] stood at 44%; in data set [13], 26. Also, the “Hepatotoxicity (granulomatous hepatitis)” value in [3] is 0. Further, in data set [4], the “Hepatotoxicity (steatosis)” value came out at 17. The “Hepatotoxicity (benign tumour)” value in [5] amounted to 0. For the same compound, in [6], the “Hepatotoxicity (choleostasis)” value is 3. Besides, in data set [7], the “Hepatotoxicity (time to onset)” value is recorded as 1 week - 8 years. Besides, the “Hepatotoxicity (malignant tumour)” value in data set [8] was determined as 0. Moreover, the “Hepatotoxicity (chronic liver disease)” value in data set [9] came to 0. In addition, the “Hepatotoxicity (severe hepatitis)” value in data set [10] is given as 13. For the same compound, in data set [11], the “Hepatotoxicity (cirrhosis)” value stood at 0. In addition, the “Hepatotoxicity (successful reintroduction)” value in data set [12] is given as “yes”. The “Hepatotoxicity (acute)” value in [14] is listed as 12.5%; in data set [15], 25. In [16], the “Hepatotoxicity (comment)” value is given as “I/INTERFERON/PARACETAMOL REACTIVATION_HVB”. In addition, the “Hepatotoxicity (association with vascular disease)” value in data set [17] is reported as 0.

As to `CC(C)(C)NC(=O)[C@@H]1C[C@@H]2CCCC[C@@H]2CN1C[C@@H](O)[C@H](Cc1ccccc1)NC(=O)[C@H](CC(N)=O)NC(=O)c1ccc2ccccc2n1`, the “Hepatotoxicity (cytolytic)” value in data set [1] (Liver) amounted to 10. The “Hepatotoxicity (moderate)” value in data set [2] (Liver) is given as 44%; in data set [13], 7. In addition, the “Hepatotoxicity (granulomatous hepatitis)” value in data set [3] (Liver) is listed as 0. In data set [4], the “Hepatotoxicity (steatosis)” value was determined as 0. The “Hepatotoxicity (benign tumour)” value in data set [5] is listed as 0. Besides, the “Hepatotoxicity (choleostasis)” value in data set [6] (Liver) was 0. Besides, the “Hepatotoxicity (time to onset)” value in data set [7] was less than 1 day - 6 months. The “Hepatotoxicity (malignant tumour)” value in [8] amounted to 0. Further, the “Hepatotoxicity (chronic liver disease)” value in data set [9] amounted to 0. In [10] (Liver), the “Hepatotoxicity (severe hepatitis)” value amounted to 0. Besides, in data set [11], the “Hepatotoxicity (cirrhosis)” value was 0. In addition, the “Hepatotoxicity (successful reintroduction)” value in data set [12] is given as “yes”. Further, the “Hepatotoxicity (acute)” value in [14] (Liver) was 12.5%. In addition, the “Hepatotoxicity (comment)” value in data set [16] is “REACTIVATION_HVB”. For the same compound, in [17], the “Hepatotoxicity (association with vascular disease)” value amounted to 0.

For the compound `CC(C)(C)c1ccc(C(O)CCCN2CCC(C(O)(c3ccccc3)c3ccccc3)CC2)cc1` (stereo unspecified) [TERFENADINE], the “Hepatotoxicity (cytolytic)” value in data set [1] turned out to be 2. The figures for the “Hepatotoxicity (moderate)” value in data set [2] (Liver) and in data set [13] were 19.2% and 1, respectively. Further, the “Hepatotoxicity (granulomatous hepatitis)” value in data set [3] is on record as 0. The “Hepatotoxicity (steatosis)” value in data set [4] was found to be 0. The “Hepatotoxicity (benign tumour)” value in [5] was determined as 0. Also, the “Hepatotoxicity (choleostasis)” value in data set [6] came to 2. Further, the “Hepatotoxicity (time to onset)” value in [7] came to 4 weeks - 5 months. Further, the “Hepatotoxicity (malignant tumour)” value in data set [8] was determined as 0. Further, the “Hepatotoxicity (chronic liver disease)” value in [9] is given as 0. Moreover, the “Hepatotoxicity (severe hepatitis)” value in data set [10] (Liver) amounted to 0. Besides, the “Hepatotoxicity (cirrhosis)” value in data set [11] is listed as 0. The “Hepatotoxicity (successful reintroduction)” value in data set [12] was “yes”. In data set [14] (Liver), the “Hepatotoxicity (acute)” value came out at 0%. Further, in data set [16], the “Hepatotoxicity (comment)” value was “DESTRUCTION_VB”. In addition, the “Hepatotoxicity (association with vascular disease)” value in data set [17] is on record as 0.

For `CCCCCCCCNC(C)C(O)c1ccc(SC(C)C)cc1` (stereo unspecified) [SULOCTIDIL], in data set [1], the “Hepatotoxicity (cytolytic)” value is recorded as 7. Also, the “Hepatotoxicity (moderate)” value is 15% in data set [2] and 3 in [13]. Besides, the “Hepatotoxicity (granulomatous hepatitis)” value in [3] is recorded as 0. The “Hepatotoxicity (steatosis)” value in [4] was determined as 1. Moreover, the “Hepatotoxicity (benign tumour)” value in data set [5] is reported as 0. For the same compound, in data set [18], the “Hepatotoxicity (mechanism)” value was “Allergic”. In data set [6], the “Hepatotoxicity (choleostasis)” value came out at 3. For the same compound, the “Hepatotoxicity (time to onset)” value in [7] stood at 1 week - 1 year. The “Hepatotoxicity (malignant tumour)” value in [8] is 0. Also, the “Hepatotoxicity (chronic liver disease)” value in data set [9] came out at 1. Further, in data set [10], the “Hepatotoxicity (severe hepatitis)” value came to 2. For the same compound, the “Hepatotoxicity (cirrhosis)” value in data set [11] turned out to be 4. Also, the “Hepatotoxicity (successful reintroduction)” value in [12] was “yes”. Besides, the “Hepatotoxicity (acute)” value is 0.5% in [14] and 8 in [15]. Moreover, in data set [17], the “Hepatotoxicity (association with vascular disease)” value was 0.

In the case of `CCN(CC)Cc1cc(Nc2ccnc3cc(Cl)ccc23)ccc1O.Cl`, the “Hepatotoxicity (cytolytic)” value in data set [1] (Liver) came out at 11. The “Hepatotoxicity (moderate)” value in data set [2] (Liver) is given as 0%; in data set [13] it was 2. Besides, the “Hepatotoxicity (granulomatous hepatitis)” value in data set [3] (Liver) worked out at 0. Also, the “Hepatotoxicity (steatosis)” value in [4] came out at 0. The “Hepatotoxicity (benign tumour)” value in [5] came out at 0. Also, the “Hepatotoxicity (mechanism)” value in data set [18] (Liver) is reported as “Allergic, Dose-dependant, Reactive metabolite”. For the same compound, the “Hepatotoxicity (choleostasis)” value in data set [6] (Liver) is 4. Further, the “Hepatotoxicity (time to onset)” value in data set [7] is reported as 1 week - 1 year. Further, the “Hepatotoxicity (malignant tumour)” value in data set [8] stood at 0. The “Hepatotoxicity (chronic liver disease)” value in data set [9] amounted to 0. Further, in data set [10] (Liver), the “Hepatotoxicity (severe hepatitis)” value was found to be 8. Moreover, the “Hepatotoxicity (cirrhosis)” value in data set [11] came out at 1. Also, the “Hepatotoxicity (successful reintroduction)” value in data set [12] is recorded as “yes”. The “Hepatotoxicity (acute)” value in data set [14] (Liver) was 6.7%; in [15], 18. The “Hepatotoxicity (association with vascular disease)” value in data set [17] is listed as 0.
